The series in a line: Dissolution / microcapsule releasing test in phosphate buffer pH 7.2, 100 rpm, UV spectrophotometer. Format: physicochemical. Here is the method:
The test was carried out in phosphate buffer at pH 7.2 (obtained by dissolving 6.8 g of KH2 PO4 and 1.4 g of NaOH in 1 litre of demineralised water) at 100 rpm for the microcapsule dissolution test and 50 rpm for the tablet dissolution test according to the method described in European Pharmacopoeia, Ed. 4.4 of the April 2003. • dissolution in phosphate buffer at pH 7.2 (obtained by dissolving 6.8 g of KH2PO4 and 1.4 g of NaOH in 1 litre of demineralised water) at 100 rpm; the average of 5 tests has given the following results: • 30.1% after 5 minutes, 58.6% after 10 minutes, 71.0% after 15 minutes, 78.8% after 20 minutes, 86.9% after 30 minutes, • palatability: the palatability test was carried out as indicated above administering 200 mg of Ibuprofen BP 80 to each individual. […] The microcapsules obtained in Examples 1 to 3 (MC1, MC2 and MC3) were subjected to the releasing test in phosphate buffer by means of a UV spectrophotometer. In order to assist comparison the results obtained on AI as such in the same test are shown in the bottom line (see previous Experimental Part).

As for `CC(C)Cc1ccc(C(C)C(=O)O)cc1` (centres unmarked) [Ibuprofen BP 80, Ibuprofen], the “AI released, 5 min” value was 30.1%; the “AI released, 10 min” value is 58.6%; the “AI released, 15 min” value is 71.0%; the “AI released, 20 min” value is given as 78.8%. Further, the “AI released, 30 min” value was determined as 86.9%. Further, the “AI released, 0 min” value (0 min) amounted to 0%. Where the note is “listed as AI”, the “AI released, 5 min” value stood at 30.10%; the “AI released, 10 min” value was determined as 58.60%; the “AI released, 15 min” value was found to be 71.00%; the “AI released, 20 min” value worked out at 78.80%. Besides, the “AI released, 30 min” value (listed as AI) is listed as 86.90%.

Source of the values: patent US20090074867A1, “ORALLY DISPERSIBLE PHARMACEUTICAL COMPOSITION AND PROCESS FOR THE PREPARATION THEREOF” (priority 2004, published 2009).
